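Cells were grown in 96-well plates and exposed to each compound for 48 hours at five concentrations; endpoints were interpolated linearly between bracketing concentrations, or set to the highest concentration if not reached. GI50 is the concentration that inhibits growth by half.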 Calls of active or inactive are those of the source. Rule as the data show it: active = GI50 up to about 1.1 µM and inactive = higher.
Legend:
Test in all cases: NCI tumour cell line growth inhibition, 48 h
786-0 = test system: 786-0
ACHN = test system: ACHN
CCRF-CEM = test system: CCRF-CEM
COLO 205 = test system: COLO 205
HL-60 = test system: HL-60
HT-29 = test system: HT-29
MOLT-4 = test system: MOLT-4
NCI-H522 = test system: NCI-H522
OVCAR-8 = test system: OVCAR-8
RXF 393 = test system: RXF 393
SF-268 = test system: SF-268
SF-295 = test system: SF-295
SK-MEL-28 = test system: SK-MEL-28
SW-620 = test system: SW-620
UACC-257 = test system: UACC-257
CAKI-1 = test system: CAKI-1
NCI-H460 = test system: NCI-H460
OVCAR-5 = test system: OVCAR-5

Measured: GI50

O=C1CCC2(c3ccc(F)cc3)Nc3cc(Cl)ccc3N12 (centres undefined)
inactive: 786-0 > 100 µM | ACHN 54.6 µM | CCRF-CEM > 100 µM | COLO 205 > 100 µM | HL-60 63.4 µM | HT-29 > 100 µM | MOLT-4 37.2 µM | NCI-H522 48.6 µM | OVCAR-8 > 100 µM | RXF 393 88.9 µM | SF-268 > 100 µM | SF-295 60.5 µM | SK-MEL-28 > 100 µM | SW-620 > 100 µM | UACC-257 90.4 µM

O=C1OC(CCCl)(c2ccccc2)CC1CN1CCOCC1 (centres undefined)
inactive: 786-0 12.1 µM | ACHN 32.2 µM | CAKI-1 8.49 µM | CCRF-CEM 11.4 µM | COLO 205 18.9 µM | HL-60 9.77 µM | HT-29 18.4 µM | MOLT-4 18 µM | NCI-H460 67.3 µM | NCI-H522 18.7 µM | OVCAR-5 > 100 µM | OVCAR-8 17.7 µM | RXF 393 17.2 µM | SF-268 41.4 µM | SF-295 43 µM | SK-MEL-28 19.7 µM | SW-620 17 µM | UACC-257 22.5 µM

O=C(CC1(O)C(=O)Nc2c(Cl)ccc(Cl)c21)c1ccc(Cl)cc1Cl (centres undefined)
inactive: 786-0 14.2 µM | ACHN 16.6 µM | CAKI-1 20.3 µM | COLO 205 17.6 µM | HT-29 15.3 µM | NCI-H460 20.5 µM | OVCAR-5 16.6 µM | OVCAR-8 20.7 µM | RXF 393 25 µM | SF-268 27.6 µM | SF-295 23.2 µM | SK-MEL-28 21.7 µM | SW-620 14.1 µM | UACC-257 11.6 µM

CCC1CCC2CCCC(C)N12 (centres undefined)
inactive: 786-0 > 100 µM | ACHN > 100 µM | CAKI-1 > 100 µM | CCRF-CEM > 100 µM | COLO 205 > 100 µM | HL-60 > 100 µM | MOLT-4 > 100 µM | NCI-H522 > 100 µM | OVCAR-8 > 100 µM | SF-268 > 100 µM | SF-295 > 100 µM | SK-MEL-28 > 100 µM | SW-620 > 100 µM | UACC-257 > 100 µM

O=C(/N=C(/Nc1ccccc1)SCCS/C(=N\C(=O)c1ccccc1)Nc1ccccc1)c1ccccc1
inactive: 786-0 61.4 µM | ACHN 55.7 µM | CAKI-1 33.7 µM | CCRF-CEM 64.6 µM | COLO 205 > 100 µM | HT-29 35.6 µM | MOLT-4 38.7 µM | NCI-H460 44.3 µM | NCI-H522 22.2 µM | OVCAR-5 > 100 µM | OVCAR-8 71.1 µM | RXF 393 29.6 µM | SF-268 41.5 µM | SF-295 58.9 µM | SK-MEL-28 49.8 µM | SW-620 > 100 µM | UACC-257 42.5 µM

[O-][S+]1Cc2ccccc2CSS1 (centres undefined)
inactive: 786-0 15.7 µM | ACHN 12.8 µM | CAKI-1 16.3 µM | COLO 205 14.2 µM | HL-60 3.44 µM | HT-29 14.4 µM | MOLT-4 12.6 µM | NCI-H460 16.8 µM | NCI-H522 6.28 µM | OVCAR-5 16.3 µM | OVCAR-8 14.5 µM | RXF 393 3.85 µM | SF-268 23.9 µM | SF-295 18.7 µM | SK-MEL-28 13.8 µM | SW-620 13.6 µM | UACC-257 14.5 µM

COC(=O)C1=CCS(=O)(=O)C1
inactive: 786-0 > 100 µM | ACHN > 100 µM | CAKI-1 > 100 µM | CCRF-CEM > 10 µM | COLO 205 > 100 µM | HL-60 > 100 µM | HT-29 > 100 µM | MOLT-4 > 100 µM | NCI-H460 > 100 µM | OVCAR-5 > 100 µM | OVCAR-8 > 100 µM | RXF 393 > 100 µM | SF-268 > 100 µM | SF-295 > 100 µM | SK-MEL-28 > 100 µM | SW-620 > 100 µM | UACC-257 > 100 µM

O=C(c1ccccc1)[C@H]1Nc2ccc(Cl)cc2[C@H]2c3ccccc3O[C@H]21
inactive: 786-0 16.6 µM | ACHN 15.2 µM | CAKI-1 14 µM | COLO 205 18.7 µM | HT-29 12.7 µM | MOLT-4 4.82 µM | NCI-H460 16.5 µM | NCI-H522 17.8 µM | OVCAR-5 16 µM | OVCAR-8 16.4 µM | RXF 393 10.1 µM | SF-268 18.1 µM | SF-295 15.5 µM | SK-MEL-28 12.3 µM | SW-620 16.5 µM | UACC-257 2.45 µM

Nc1cccc2c1-c1c(cccc1[N+](=O)[O-])C2=O
inactive: 786-0 > 100 µM | CAKI-1 > 100 µM | CCRF-CEM > 100 µM | COLO 205 > 100 µM | HL-60 > 100 µM | HT-29 > 100 µM | MOLT-4 > 100 µM | NCI-H460 > 100 µM | NCI-H522 > 100 µM | OVCAR-5 > 100 µM | OVCAR-8 > 100 µM | RXF 393 > 100 µM | SF-268 > 100 µM | SF-295 > 100 µM | SW-620 > 100 µM | UACC-257 > 100 µM

N#CC(/C(=N/NC(N)=S)C(=O)Nc1cccc(Cl)c1)c1ccccc1 (centres undefined)
inactive: 786-0 > 100 µM | ACHN > 100 µM | CAKI-1 > 100 µM | CCRF-CEM > 100 µM | COLO 205 > 100 µM | HL-60 > 100 µM | HT-29 > 100 µM | MOLT-4 > 100 µM | NCI-H460 > 100 µM | NCI-H522 > 100 µM | OVCAR-5 > 100 µM | OVCAR-8 > 100 µM | SF-268 > 100 µM | SF-295 > 100 µM | SK-MEL-28 > 100 µM | SW-620 > 100 µM | UACC-257 > 100 µM

COc1ccc(C2(CN(C)C)COc3cc(OC)c(OC)cc3C2=O)cc1OC (centres undefined)
inactive: 786-0 > 100 µM | ACHN 89.5 µM | CAKI-1 42.1 µM | CCRF-CEM 19.6 µM | COLO 205 26.6 µM | HL-60 16.6 µM | HT-29 46.7 µM | MOLT-4 44.3 µM | NCI-H460 33.9 µM | NCI-H522 59.6 µM | OVCAR-8 53.1 µM | RXF 393 31.8 µM | SF-268 > 100 µM | SF-295 92.9 µM | SK-MEL-28 > 100 µM | SW-620 21.6 µM | UACC-257 49.1 µM

CCCCC1(C(NC(=O)c2ccccc2Cl)c2ccncc2)C(=O)N(c2ccccc2)N(c2ccccc2)C1=O (centres undefined)
inactive: 786-0 83.4 µM | ACHN 36.6 µM | CCRF-CEM 27.9 µM | COLO 205 22.6 µM | HL-60 17.6 µM | HT-29 41.6 µM | MOLT-4 11.9 µM | NCI-H460 32.8 µM | NCI-H522 31.6 µM | OVCAR-5 > 100 µM | OVCAR-8 75 µM | RXF 393 37.6 µM | SF-268 > 100 µM | SF-295 55.7 µM | SK-MEL-28 > 100 µM | SW-620 78.7 µM | UACC-257 29.7 µM

Cc1cc2c(CC(=O)O)n[nH]c2c(C(=O)O)c1C
inactive: 786-0 > 100 µM | ACHN > 100 µM | CCRF-CEM > 100 µM | COLO 205 > 100 µM | HL-60 > 100 µM | HT-29 > 100 µM | MOLT-4 > 100 µM | NCI-H460 > 100 µM | OVCAR-5 > 100 µM | OVCAR-8 > 100 µM | RXF 393 > 100 µM | SF-268 > 100 µM | SF-295 > 100 µM | SK-MEL-28 > 100 µM | SW-620 > 100 µM | UACC-257 > 100 µM

CCCCCCCCc1cc2c(O)c(c1)Cc1cc(CCCCCCCC)cc(c1O)Cc1cc(CCCCCCCC)cc(c1O)Cc1cc(CCCCCCCC)cc(c1O)Cc1cc(CCCCCCCC)cc(c1O)Cc1cc(CCCCCCCC)cc(c1O)C2
inactive: 786-0 > 100 µM | ACHN > 100 µM | CAKI-1 > 100 µM | CCRF-CEM > 100 µM | COLO 205 > 100 µM | HL-60 > 100 µM | HT-29 > 100 µM | MOLT-4 > 100 µM | NCI-H460 > 100 µM | OVCAR-5 > 100 µM | OVCAR-8 > 100 µM | SF-268 > 100 µM | SF-295 > 100 µM | SK-MEL-28 > 100 µM | SW-620 > 100 µM | UACC-257 > 100 µM

O=C1CC[C@@H](NC(=O)Cc2ccccc2)C(=O)N1
inactive: 786-0 > 100 µM | ACHN > 100 µM | CAKI-1 > 100 µM | CCRF-CEM > 100 µM | COLO 205 > 100 µM | HT-29 > 100 µM | MOLT-4 > 100 µM | NCI-H460 > 100 µM | NCI-H522 > 100 µM | OVCAR-5 > 100 µM | OVCAR-8 > 100 µM | SF-268 > 100 µM | SF-295 > 100 µM | SK-MEL-28 > 100 µM | SW-620 > 100 µM | UACC-257 > 100 µM

COC1=CC(=O)C2C(C1=O)C(c1ccccc1)[C@H]2C (some centres undefined)
inactive: 786-0 > 100 µM | ACHN 25.5 µM | CCRF-CEM 28.4 µM | COLO 205 > 100 µM | HL-60 38.9 µM | HT-29 > 100 µM | MOLT-4 > 10 µM | NCI-H460 > 100 µM | OVCAR-5 > 100 µM | OVCAR-8 45.6 µM | RXF 393 > 100 µM | SF-268 > 100 µM | SF-295 > 100 µM | SK-MEL-28 > 100 µM | SW-620 18.5 µM

O=C1Sc2ccccc2C(=O)N2CSCC12 (centres undefined)
inactive: 786-0 > 100 µM | ACHN > 100 µM | CCRF-CEM > 100 µM | COLO 205 > 100 µM | HL-60 > 100 µM | HT-29 > 100 µM | MOLT-4 > 100 µM | NCI-H460 > 100 µM | NCI-H522 > 100 µM | OVCAR-8 > 100 µM | RXF 393 > 100 µM | SF-268 > 100 µM | SF-295 > 100 µM | SK-MEL-28 > 100 µM | SW-620 > 100 µM | UACC-257 > 100 µM
